The text below walks through data of paper PMC4514675, “Novel Apo E-Derived ABCA1 Agonist Peptide (CS-6253) Promotes Reverse Cholesterol Transport and Induces Formation of preβ-1 HDL In Vitro” (PLoS ONE, 2015).

Experiment [1] has as its system BHK cells expressing ABCA1. The experiment in a line: Nascent HDL particle formation, 2D-PAGGE. To be noted: 0.96 μM. It counts as cell-based, hamster. As to the method: Apo A-I and CS-6253-containing particles were separated according to charge (agarose, horizontal axis) and size (polyacrylamide gradient, 3% to 20% gel, vertical axis) as previously described. Apo A-I-containing particles were detected by incubating the membranes with immunopurified polyclonal anti-apo A-I antibody (Biodesign). The nHDL-CS-6253 containing particles were detected with immunopurified polyclonal anti-CS-6253 antibody (Biosynthesis Inc., Lewisville, TX). The anti-CS-6253 is a purified rabbit IgG polyclonal antibody specifically produced by Biosynthesis Inc. It is. Cross reactivity of this antibody was verified by Nondenaturing gradient gel electrophoresis (ND-PAGGE) 5% to 35% [24]. The anti-CS-6253 antibody recognizes only CS-6253 peptide in plasma; neither apo A-I nor apo E were detected by this antibody after separation by gradient gel electrophoresis respectively (Fig 1A, 1B and 1C). High molecular weight protein mixture (GE Healthcare, UK) was run as a standard on each gel.
Next, we investigated the nature of CS-6253-containing particles released in the medium from stimulated ABCA1 cells. Cells were first incubated in 100 mm diameter dishes with either (0.96 μM) apo A-I or CS-6253 in 8 ml of DMEM for 45 min and 6 h at 37°C. These two time points were selected based on our previous work on HDL biogenesis. Lipid free apo A-I or CS-6253 incubated in cell free system media under same conditions were used as control for 2D-PAGGE analysis. Apo A-I or CS-6253-containing particles were separated and analyzed by 2D-PAGGE. […] Both the charge and size of these nascent particles were stable over a 6h incubation period.
Fig 5 Time course ability of CS-6253 to generate nHDL-mimetic like particles. (A and B): nHDL-CS-6253 and nHDL-apo A-I released to the medium at specific time points (45 min and 6 h) from BHK cells expressing ABCA1 were analyzed by 2D-PAGGE. […] Molecular markers are indicated.

For another experiment, the system named is BHK-mock cells. Put plainly: Cholesterol efflux from control cells (unstimulated BHK-ABCA1, BHK-mock), media. The format is cell-based, hamster. From the text:
BHK cells stably transfected with an ABCA1 or ABCG1 expression vector that is mifepristone inducible and cells transfected with the same vector lacking the ABCA1 cDNA insert (mutant or mock-transfected) were generously provided by the late Dr. John F. Oram from the Department of Medicine, University of Washington, and were characterized and cultured as previously described. […] Mouse-derived peritoneal macrophages J774 were purchased from American Tissue Culture Collection (ATCC TIB-67, Cederlane, Burlington, Canada). For induction of ABCA1, BHK cells were incubated for 18–20 h with 10 nM mifepristone. […]
Fig 2 Effect of CS-6253 treatment on cholesterol efflux. […] Cholesterol efflux from either ABCA1 cells or control cells to apo A-I (closed circles), and CS-6253 (closed triangles) was determined at the indicated time points. […] ABCA1 was detected from THP-1 foam cells lysis at 4°C with lysis buffer containing 0.5% n-dodecylmaltoside in the presence of a protease inhibitor mixture followed by low speed centrifugation to remove cell debris. Protein concentration was determined by standard assay (Bio-Rad). […] After electrophoresis, ABCA1 was detected by an anti-ABCA1 antibody. […] 3[H]-FC and 3[H]-CE were separated by TLC and located by exposure to iodine vapor, and were scraped off into liquid scintillating vials and assayed for radioactivity. […]

As to apolipoprotein A-I [apo A-I], the “electrophoretic mobility of released particles” value in experiment [1] (45 min or 6 h, BHK-ABCA1) is given as “α-electrophoretic mobility”. In experiment [1] (cell free media), the “electrophoretic mobility, incubated without cells” value was “pre-β electrophoretic mobility”. Further, the “molecular diameter, incubated without cells” value in experiment [1] (lipid free, cell free media, pre-β mobility) stood at 7.1 nm. Further, the “maximum cholesterol efflux by diffusion” value in the experiment with BHK-mock cells (BHK mock and unstimulated BHK-ABCA1 cells) was determined as 0.75%. Moreover, the “cholesterol efflux from control cells” value in the experiment on BHK-mock cells (unstimulated BHK-ABCA1 and BHK-mock, CS-6253 30 μg/ml, apo A-I 10 μg/ml) is reported as “no significant cholesterol efflux”.
